≈ marks a conversion by molar mass, not a printed value. Structures can show the parent of a compound that is named as a salt. Where two headings read alike, the source gives them in different places.
What was measured:
[1] = tested on: Pseudomonas aeruginosa GN10362; test: MIC of the infecting strain, Table 2; format: cell-based
Method: (§1) The minimum growth inhibitory concentration (MIC) against various bacteria was measured in a bacterial count of 10^6 CFU/ml using medium SDA (NISSUI) in accordance with the Japan Chemotherapy Association.

[2] = tested on: Klebsiella pneumoniae PCI 602; test: MIC of the infecting strain, Table 2; format: cell-based; details: PCI602
Method: as §1

Escherichia coli No. 29 [3] = test: MIC of the infecting strain, Table 2; format: cell-based
Method: as §1

[4] = tested on: Pseudomonas aeruginosa M-0148; test: Minimum growth inhibitory concentration, Test Example 1; format: cell-based
Method: as §1

[5] = tested on: Staphylococcus epidermidis ATCC 14990; test: as above; format: cell-based
Method: as §1

[6] = tested on: Pseudomonas aeruginosa Ml Rms139; test: as above; format: cell-based; details: MLRMS139, read-out: Minimum Growth Inhibitory Concentration MIC
Method: as §1

[7] = tested on: Staphylococcus aureus Smith (I); test: as above; format: cell-based; details: read-out: Minimum Growth Inhibitory Concentration MIC
Method: as §1

[8] = tested on: Citrobacter freundii GN346; test: as above; format: cell-based
Method: as §1

Escherichia coli 255 = test: as above; format: cell-based; details: 10^6 CFU/ml, medium SDA
Method: as §1

[9] = tested on: Escherichia coli W3630 RGN823; test: as above; format: cell-based; details: W3630RGN823, read-out: Minimum Growth Inhibitory Concentration MIC
Method: as §1

[10] = tested on: Pseudomonas aeruginosa IAM-1007; test: as above; format: cell-based
Method: as §1

[11] = tested on: Bacillus subtilis ATCC6633; test: as above; format: cell-based
Method: as §1

[12] = tested on: Citrobacter freundii GN346/16-10; test: as above; format: cell-based; details: GN346, read-out: Minimum Growth Inhibitory Concentration MIC
Method: as §1

[13] = tested on: Escherichia coli W3630 RGN238; test: as above; format: cell-based; details: W3630RGN238, read-out: Minimum Growth Inhibitory Concentration MIC
Method: as §1

Escherichia coli 255/S-1 = test: as above; format: cell-based; details: 255/S1, 10^6 CFU/ml, medium SDA
Method: as §1

[14] = tested on: Citrobacter freundii GN346/16; test: as above; format: cell-based
Method: as §1

Escherichia coli GN206 [15] = test: Minimum growth inhibitory concentration; format: cell-based
Method: as §1

[16] = tested on: Pseudomonas aeruginosa GN10362; test: Effect to prevent infections in mice, Test Example 6; format: in vivo, ICR strain male mice; details: mouse, i.p. infection 8.8 × 10^5 CFU/mouse with mucin; s.c. one hour and 3 hours after; 7 days
Method: (§2) The culture solution of each test bacterium was adjusted to a bacterial concentration shown in the table and then supplemented with 2.5% (W/V) of mucin. The solution was intraperitoneally administered to ICR strain male mice (mean body weight of 20 g, 4 weeks old) of one group being 8 at a dose of 0.5 ml to experimentally cause infection. Each test compound was subcutaneously administered one hour after (provided that in case of Pseudomonas aeruginosa was given one hour and 3 hours after). Observation was made for 7 days.

Escherichia coli GN206 [17] = test: as above; format: in vivo, ICR strain male mice; details: mouse, i.p. infection 9.5 × 10^6 CFU/mouse with mucin; s.c. one hour after; 7 days
Method: as §2

[18] = tested on: Klebsiella pneumoniae PCI 602; test: as above; format: in vivo, ICR strain male mice; details: mouse, i.p. infection 6.5 × 10^4 CFU/mouse with mucin; s.c. one hour after; 7 days
Method: as §2

Escherichia coli No. 29 [19] = test: as above; format: in vivo, ICR strain male mice; details: mouse, i.p. infection 2.3 × 10^5 CFU/mouse with mucin; s.c. one hour after; 7 days
Method: as §2

ICR strain male mice = test: Acute toxicity test, Test Example 5; format: in vivo; details: for survival: ICR male mice, 75 mg in 0.4 ml, tail vein, 14 days
Method: (§3) 75 mg of each test compound was dissolved in 0.4 ml of phuysiological saline. The solution was administered to the tail vein of ICR strain male mice (mean body weight of 25 g, 5 weeks old) of one group being 3 mice. Observation was made for 14 days.

[20] = Acute toxicity test, Test Example 5; format: in vivo; details: mouse, in vivo, iv; ICR male mice, tail vein; 14 days
Method: as §3

[21] = tested on: clinically isolated Klebsiella pneumoniae, Proteus vulgaris and Pseudomonas aeruginosa; test: Distribution in sensitivity of clinically isolated strains, Test Examples 2 to 4; format: cell-based; details: compared to known compounds
Method: Each MIC of various bacteria clinically isolated from patients was measured in a manner similar to Test Example 1 and its percentage to the all strains to reach the inhibitory concentration was accumulatively expressed .
Distribution in sensitivity to pneumobacilli clinically isolated.
Distribution in sensitivity to variant clinically isolated.
Distribution in sensitivity to Pseudomonas aeruginosa clinically isolated.

[22] = Concentration in blood plasma (rat) and in serum (common marmoset), Test Examples 7 and 8; format: in vivo, SD strain male rats; female common marmosets; details: various animal tests
Method: A test compound was dissolved in physiological saline in a concentration of 20 mg/ml. The solution was given in the tail vein of SD strain male rats (mean body weight of 325 g) of one group being 4 in a dose of 1 ml/kg. Blood was collected from the femoral artery in course of time and blood plasma was isolated from the blood. A concentration of the test compound in blood plasma was quantitatively assayed by high performance liquid chromatography. A test compound was dissolved in 0.05M phosphate buffer (pH 6.5) in a concentration of 2.0 mg/ml. The solution was intramuscularly administered to female common marmosets of one group being 2 in a dose of 5 ml/kg. Blood was collected from the femoral artery with passage of time and serum was separated from the blood followed by quantitative assay by bioassay using Escherichia coli K-12 HW 8236 as a bacterium for the assay.

[23] = tested on: Escherichia coli, pneumobacilli and Pseudomons aeruginosa; test: Effect to prevent infections, overall comparison with known compounds, Test Example 6; format: in vivo, ICR strain male mice; details: compared to the known compounds (CAZ, HR-810)
Method: as §2

[24] = Citrobacter freundii, GN346, read-out: Minimum Growth Inhibitory Concentration MIC
[25] = Klebsiella pneumoniae PCI 602, Table 2, read-out: MIC
[26] = M0148, Pseudomonas aeruginosa M-0148, 10^6 CFU/ml, medium SDA, read-out: Minimum Growth Inhibitory Concentration MIC
[27] = ATCC14990, Staphylococcus epidermidis ATCC 14990, 10^6 CFU/ml, medium SDA, read-out: Minimum Growth Inhibitory Concentration MIC
[28] = Staphylococcus aureus Smith (I), 10^6 CFU/ml, medium SDA
[29] = Citrobacter freundii GN346, 10^6 CFU/ml, medium SDA, read-out: Minimum Growth Inhibitory Concentration MIC
[30] = IAM1007, Pseudomonas aeruginosa IAM-1007, 10^6 CFU/ml, medium SDA, read-out: Minimum Growth Inhibitory Concentration MIC
[31] = Bacillus subtilis ATCC6633, 10^6 CFU/ml, medium SDA, read-out: Minimum Growth Inhibitory Concentration MIC
[32] = Citrobacter freundii GN346/16, 10^6 CFU/ml, medium SDA, read-out: Minimum Growth Inhibitory Concentration MIC
[33] = Escherichia coli GN206, Table 1, 10^6 CFU/ml, medium SDA, read-out: Minimum Growth Inhibitory Concentration MIC

SMILES	MIC (Escherichia coli No. 29 [3])	MIC [6]	MIC (Escherichia coli 255)	MIC [9]	MIC [13]	MIC (Escherichia coli 255/S-1)	ED50 (preventive effect) [16]	ED50 (preventive effect) (Escherichia coli GN206 [17])	ED50 (preventive effect) [18]	ED50 (preventive effect) (Escherichia coli No. 29 [19])	survival (ICR strain male mice)	LD50 at 336 h [20]	MIC [2, 25]	MIC [4, 26]	MIC [5, 27]	MIC [7, 28]	MIC [8, 29]	MIC [10, 30]	MIC [11, 31]	MIC [14, 32]	further results
CC(C)(ON=C(C(=O)NC1C(=O)N2C(C(=O)[O-])=C(C[n+]3ccccc3)CSC12)c1csc(N)n1)C(=O)O [CAZ, (6R, 7R)-7-[(Z)-2-(2-aminothiazol-4-yl)-2-(2-methylcarboxyisoprop;oxyimino)acetamido]-3-pyridinium-1-ylmethyl-ceph-3-em-4-carboxylate]	0.2 µg/mL	0.78 µg/mL (≈ 1.43 µM)	12.5 µg/mL (≈ 22.9 µM)	0.2 µg/mL (≈ 0.366 µM)	0.2 µg/mL (≈ 0.366 µM)	0.39 µg/mL (≈ 0.714 µM)	8 mg/mouse	1.0 mg/mouse	0.57 mg/mouse	0.006 mg/mouse	survived	≥ 4000 mg/kg	–	–	–	–	–	–	–	–	MIC ([1]; Pseudomonas aeruginosa, GN10362): 1.56 µg/mL; MIC ([2]; Klebsiella pneumoniae): 0.2 µg/mL; MIC ([4]; Pseudomonas aeruginosa, M0148, read-out: Minimum Growth Inhibitory Concentration MIC): 1.56 µg/mL (≈ 2.85 µM); MIC ([5]; Staphylococcus epidermidis, ATCC14990, read-out: Minimum Growth Inhibitory Concentration MIC): 3.13 µg/mL (≈ 5.73 µM); MIC ([7]; Staphylococcus aureus): 3.13 µg/mL (≈ 5.73 µM); MIC [8, 24]: 25 µg/mL (≈ 45.7 µM); MIC ([10]; Pseudomonas aeruginosa, IAM1007, read-out: Minimum Growth Inhibitory Concentration MIC): 0.78 µg/mL (≈ 1.43 µM); MIC ([11]; Bacillus subtilis, ATCC6633, read-out: Minimum Growth Inhibitory Concentration MIC): 3.13 µg/mL (≈ 5.73 µM); MIC [12]: 25 µg/mL (≈ 45.7 µM); MIC [14, 24]: 0.78 µg/mL (≈ 1.43 µM); MIC (Escherichia coli GN206 [15]; Escherichia coli, GN206): 1.56 µg/mL (≈ 2.85 µM); MIC (Escherichia coli GN206 [15]; Escherichia coli, GN206, read-out: Minimum Growth Inhibitory Concentration MIC): 1.56 µg/mL (≈ 2.85 µM)
CC[n+]1ccc(SCC2=C(C(=O)[O-])N3C(=O)[C@@H](NC(=O)/C(=N\O[C@@H](C)C(=O)O)c4csc(N)n4)[C@H]3SC2)cc1 [Compound I, (6R, 7R)-7-[(Z)-2-(2-aminothiazol-4-yl)-2-{(1S)-carboxyethoxyimino}acetamido]-3-(1-ethylpyridinium-4-ylthiomethyl)-ceph-3-em-4-carboxylate monosodium salt]	0.1 µg/mL	0.78 µg/mL	0.2 µg/mL	0.05 µg/mL	0.2 µg/mL	0.1 µg/mL	4.5 mg/mouse	0.36 mg/mouse	0.33 mg/mouse	0.002 mg/mouse	survived	≥ 4000 mg/kg	0.05 µg/mL	0.78 µg/mL	3.13 µg/mL	1.56 µg/mL	6.25 µg/mL	0.78 µg/mL	3.13 µg/mL	0.39 µg/mL	MIC ([1]; Pseudomonas aeruginosa GN10362, Table 2, read-out: MIC): 1.56 µg/mL; distribution in sensitivity to clinically isolated strains (in words) [21]: much more excellent antibacterial activity over a wide range; MIC (Escherichia coli GN206 [15]; [33]): 0.1 µg/mL; MIC (Escherichia coli GN206 [15]; Escherichia coli GN206, Table 2, read-out: MIC): 0.2 µg/mL; durability in a concentration to exhibit the antibacterial activity (in words) [22]: sufficient durability in a concentration to exhibit the antibacterial activity; transfer into blood and organ (in words) [22]: rapidly transferred into blood and organ; effect to prevent infections compared to the known compounds (in words) [23]: equal to or superior to them; toxicity (in words) (ICR strain male mice; various animal tests): low toxicity
CON=C(C(=O)NC1C(=O)N2C(C(=O)[O-])=C(C[n+]3cccc4c3CCC4)CSC12)c1csc(N)n1 [HR-810, (6R, 7R)-7-[(Z)-2-(2-aminothiazol-4-yl)-2-(methoxyimino)acetamido]-3-cyclopentenopyridinium-1-ylmethyl-ceph-3-em-4-carboxylate]	0.05 µg/mL	3.13 µg/mL (≈ 6.08 µM)	0.2 µg/mL (≈ 0.389 µM)	0.1 µg/mL (≈ 0.194 µM)	0.78 µg/mL (≈ 1.52 µM)	0.05 µg/mL (≈ 0.0972 µM)	–	–	1.3 mg/mouse	0.006 mg/mouse	survived	≥ 4000 mg/kg	0.05 µg/mL	12.5 µg/mL (≈ 24.3 µM)	0.39 µg/mL (≈ 0.758 µM)	0.39 µg/mL (≈ 0.758 µM)	0.78 µg/mL (≈ 1.52 µM)	12.5 µg/mL (≈ 24.3 µM)	0.1 µg/mL (≈ 0.194 µM)	0.05 µg/mL (≈ 0.0972 µM)	MIC (Escherichia coli GN206 [15]; [33]): < 0.025 µg/mL

— patent US4810702A, “Antibacterial agent for mammal use comprising cephalosporin derivatives as an effective ingredient” (Meiji Seika Kaisha, Ltd., priority 1986, dated 1989)
